What was measured:
[1] = target: T1, LOX2:Md:2b (MdLOX2b) (Malus domestica, UniProt S4ULD7); assay: HPLC product analysis; format: biochemical; conditions: 50 mM sodium phosphate pH 7.5, 25 °C, 0.3 mM substrate
T1 sequence (S4ULD7 1-905): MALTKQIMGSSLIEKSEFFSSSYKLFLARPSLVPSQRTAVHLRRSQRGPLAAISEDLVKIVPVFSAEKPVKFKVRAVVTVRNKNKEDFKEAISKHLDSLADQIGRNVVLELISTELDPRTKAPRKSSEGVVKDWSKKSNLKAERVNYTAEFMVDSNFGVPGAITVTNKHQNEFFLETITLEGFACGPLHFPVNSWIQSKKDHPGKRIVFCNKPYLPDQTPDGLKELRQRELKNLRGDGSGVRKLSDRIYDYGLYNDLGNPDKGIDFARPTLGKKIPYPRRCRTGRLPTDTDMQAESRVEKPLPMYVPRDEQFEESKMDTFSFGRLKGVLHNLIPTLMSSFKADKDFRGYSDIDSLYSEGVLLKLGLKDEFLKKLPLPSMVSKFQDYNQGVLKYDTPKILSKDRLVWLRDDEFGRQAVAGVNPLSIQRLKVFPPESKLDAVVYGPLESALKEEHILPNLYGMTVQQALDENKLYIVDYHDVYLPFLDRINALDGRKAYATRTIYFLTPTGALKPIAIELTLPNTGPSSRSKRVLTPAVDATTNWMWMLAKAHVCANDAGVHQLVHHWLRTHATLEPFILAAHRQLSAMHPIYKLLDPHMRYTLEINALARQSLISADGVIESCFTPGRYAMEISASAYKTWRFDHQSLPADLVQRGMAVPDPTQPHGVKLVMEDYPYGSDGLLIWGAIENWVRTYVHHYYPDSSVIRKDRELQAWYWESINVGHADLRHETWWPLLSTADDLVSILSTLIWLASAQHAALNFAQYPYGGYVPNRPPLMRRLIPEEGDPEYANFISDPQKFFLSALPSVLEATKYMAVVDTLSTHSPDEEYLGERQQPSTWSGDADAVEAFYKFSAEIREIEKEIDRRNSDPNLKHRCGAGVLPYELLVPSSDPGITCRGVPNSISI

[2] = target: T2, LOX2:Md:2a (MdLOX2a) (Malus domestica, UniProt S4U6N9); assay: HPLC product analysis; format: biochemical; conditions: 50 mM sodium phosphate pH 7.5, 25 °C, 0.3 mM substrate
T2 sequence (S4U6N9 1-906): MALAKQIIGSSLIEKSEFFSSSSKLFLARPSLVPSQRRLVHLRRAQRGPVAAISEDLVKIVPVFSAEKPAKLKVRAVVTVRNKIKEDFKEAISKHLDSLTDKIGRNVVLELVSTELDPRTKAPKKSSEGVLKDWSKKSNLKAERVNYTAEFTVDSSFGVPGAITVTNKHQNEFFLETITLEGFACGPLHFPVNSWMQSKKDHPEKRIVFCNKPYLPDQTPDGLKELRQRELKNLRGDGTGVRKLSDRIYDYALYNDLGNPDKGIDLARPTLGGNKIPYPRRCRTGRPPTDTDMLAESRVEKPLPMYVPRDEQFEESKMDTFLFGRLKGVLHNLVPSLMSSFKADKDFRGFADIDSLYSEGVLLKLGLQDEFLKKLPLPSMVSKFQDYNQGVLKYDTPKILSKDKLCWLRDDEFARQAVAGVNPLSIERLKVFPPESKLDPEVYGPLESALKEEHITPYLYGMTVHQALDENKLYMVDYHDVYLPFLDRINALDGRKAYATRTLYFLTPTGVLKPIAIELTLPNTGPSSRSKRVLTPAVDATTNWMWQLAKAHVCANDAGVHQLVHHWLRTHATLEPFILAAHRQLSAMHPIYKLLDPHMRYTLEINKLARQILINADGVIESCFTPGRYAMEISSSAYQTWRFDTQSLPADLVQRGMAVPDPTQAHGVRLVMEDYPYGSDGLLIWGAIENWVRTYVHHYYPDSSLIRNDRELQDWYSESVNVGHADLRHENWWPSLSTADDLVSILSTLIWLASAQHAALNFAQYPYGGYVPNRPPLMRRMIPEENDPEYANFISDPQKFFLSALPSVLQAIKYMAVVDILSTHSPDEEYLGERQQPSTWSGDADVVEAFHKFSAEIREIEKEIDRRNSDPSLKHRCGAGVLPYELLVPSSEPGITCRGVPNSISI

Structure (SMILES) | HPLC product analysis (SP-HPLC, CP-HPLC) [1] | HPLC product analysis (SP-HPLC, CP-HPLC) [2]
CCCCC/C=C\C/C=C\CCCCCCCC(=O)O [linoleic acid] | LOX2:Md:2a and LOX2:Md:2b converted LA and LnA predominantly to 13-hydroperoxides | LOX2:Md:2a and LOX2:Md:2b converted LA and LnA predominantly to 13-hydroperoxides
CC/C=C\C/C=C\C/C=C\CCCCCCCC(=O)O [α-linolenic acid] | LOX2:Md:2a and LOX2:Md:2b converted LA and LnA predominantly to 13-hydroperoxides | LOX2:Md:2a and LOX2:Md:2b converted LA and LnA predominantly to 13-hydroperoxides

From article PMC4595979 (Horticulture Research, 2015)
